Consider 8 compounds from US20240382475A1, “Quinazoline Derivative, Or Preparation Method Therefor And Use Thereof” (Zhejiang Hisun Pharmaceutical Co., Ltd., priority 2021, published 2024).

Each structure is given as a SMILES string.

One test concerns the target T1, KRAS-G12C/SOS1 (Homo sapiens, UniProt Q07889).
T1 construct: purchased Cisbio 63ADK000CB16PEG
T1 sequence (Q07889 1-1333): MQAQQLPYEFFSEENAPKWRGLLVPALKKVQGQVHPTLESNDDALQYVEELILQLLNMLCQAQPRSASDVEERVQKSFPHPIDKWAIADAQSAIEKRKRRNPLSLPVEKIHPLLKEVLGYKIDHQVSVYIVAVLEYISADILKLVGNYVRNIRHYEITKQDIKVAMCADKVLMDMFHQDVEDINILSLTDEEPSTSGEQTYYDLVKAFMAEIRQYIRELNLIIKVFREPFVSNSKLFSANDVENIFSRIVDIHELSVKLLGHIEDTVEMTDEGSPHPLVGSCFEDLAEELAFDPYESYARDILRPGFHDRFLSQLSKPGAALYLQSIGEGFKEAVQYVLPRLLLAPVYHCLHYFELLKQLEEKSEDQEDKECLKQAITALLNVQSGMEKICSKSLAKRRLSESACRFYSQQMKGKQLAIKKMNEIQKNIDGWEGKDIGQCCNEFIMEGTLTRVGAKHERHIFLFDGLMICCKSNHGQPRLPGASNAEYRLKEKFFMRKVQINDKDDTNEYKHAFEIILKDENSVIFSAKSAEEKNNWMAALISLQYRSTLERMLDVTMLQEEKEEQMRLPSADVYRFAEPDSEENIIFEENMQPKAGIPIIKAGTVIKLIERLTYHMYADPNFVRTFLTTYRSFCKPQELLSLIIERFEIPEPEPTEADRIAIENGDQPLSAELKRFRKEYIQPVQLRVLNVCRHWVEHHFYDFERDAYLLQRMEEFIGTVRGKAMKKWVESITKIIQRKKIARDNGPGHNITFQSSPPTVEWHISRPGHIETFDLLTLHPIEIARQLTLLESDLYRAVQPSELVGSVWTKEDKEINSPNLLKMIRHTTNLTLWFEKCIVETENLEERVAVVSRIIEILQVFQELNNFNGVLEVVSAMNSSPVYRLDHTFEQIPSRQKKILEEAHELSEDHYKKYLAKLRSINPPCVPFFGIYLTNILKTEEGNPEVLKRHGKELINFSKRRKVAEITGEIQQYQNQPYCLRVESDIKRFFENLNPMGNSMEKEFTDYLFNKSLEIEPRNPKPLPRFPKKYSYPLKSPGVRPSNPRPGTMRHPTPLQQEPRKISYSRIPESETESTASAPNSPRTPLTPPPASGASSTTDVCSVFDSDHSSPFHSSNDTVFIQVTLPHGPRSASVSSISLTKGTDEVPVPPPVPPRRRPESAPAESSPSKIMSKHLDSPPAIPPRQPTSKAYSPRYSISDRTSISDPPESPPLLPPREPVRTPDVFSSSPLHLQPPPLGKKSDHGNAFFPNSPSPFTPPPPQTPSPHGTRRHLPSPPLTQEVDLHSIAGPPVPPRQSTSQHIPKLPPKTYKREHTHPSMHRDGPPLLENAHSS
Put plainly: Blocking the binding of KRAS G12C protein to SOS1 (Cisbio KRAS-G12C/SOS1 binding assay kit, TR-FRET). Particulars: Tag1-SOS1 and Tag2-KRAS-G12C, TR-FRET 665/620; read-out: IC50 (nM) Inhibition of KRAS-G12C/SOS1 binding. The source says:
The following method was used to determine the abilities of compounds of the invention to block the interaction of SOS1 with the KRAS G12C protein in vitro. KRAS-G12C/SOS1 BINDING ASSAY KITS (Art. No. 63ADK000CB16PEG) from Cisbio was used in this method. Please refer to the kit instruction for detailed experimental operations.
The experimental process can be briefly described as follows: diluent buffer (Art. No. 62DLBDDF) was used to prepare a working solution with a concentration of 5× for Tag1-SOS1 and Tag2-KRAS-G12C protein. The test compounds were dissolved in DMSO to prepare storage solutions of 10 mM, and then the solutions were diluted with dilution buffer for later use. First, 2 μL of the test compound (the final concentrations of the reaction system were 10000 nM-0.1 nM) was added to the well, then 4 μL of Tag1-SOS1 5× working solution and 4 μL of Tag2-KRAS-G12C 5× working solution were added, and the above mixture was centrifuged, mixed, and stood for 15 minutes; then 10 μL of premixed anti-Tag1-Tb^3+ and anti-Tag2-XL665 were added, and the mixture was incubated at room temperature for 2 hours; finally, a microplate reader was used in […] mode to measure the fluorescence intensity of each well emitting wavelengths of 620 nm and […] under the excitation wavelength of 304 nm, and the fluorescence intensity ratio 665/620 in each well was calculated. Compared with the fluorescence intensity ratio of a control group (0.1% DMSO), the percentage inhibition rates of the test compounds at each concentration were calculated, and the IC50 values of the compounds were obtained by performing nonlinear regression analysis with logarithmic values of the compound concentration-inhibition rate by GraphPad Prism 5 software, which was shown in Table 1.
(In general: Time-resolved FRET reads energy transfer from a long-lived donor to a nearby acceptor.)

A further test relates to OCI-AML5 cells. Put plainly: Inhibition of OCI-AML5 cell proliferation (CellTiter-Glo). Particulars: Homo sapiens, OCI-AML-5; OCI-AML5 cells (SOS1 N233Y mutation), 120 hours. It is filed as cell-based. The essentials: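 OCI-AML5 cells (SOS1 N233Y), 1,000 per well, treated after overnight culture with compound at final 10000 nM to 0.15 nM for 120 hours at 37° C, 5% CO2. Viability read by CellTiter-Glo luminescence.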
Background: ATP-based viability assays read luminescence as a measure of living cells.

Take `COc1cc2nc(C)nc(N[C@H](C)c3cccc(C#N)c3C)c2cc1N1CCOCC1` [Compound 1, (R)-3-(1-((7-methoxy-2-methyl-6-morpholinoquinazolin-4-yl)amino)ethyl)-2-methylbenzonitrile]: the IC50 was 26.2 nM on KRAS-G12C/SOS1 and 46.4 nM in the test with OCI-AML5 cells.

On to `COc1cc2nc(C)nc(N[C@H](C)c3cccc(C#N)c3C)c2cc1N1CCN(C(C)=O)CC1` [Compound 2, (R)-3-(1-((6-(4-acetylpiperazin-1-yl)-7-methoxy-2-methylquinazolin-4-yl)amino)ethyl)-2-methylbenzonitrile], for which the IC50 at KRAS-G12C/SOS1 was determined as 20.7 nM; in the test with OCI-AML5 cells, 8.4 nM.

On to `COc1cc2nc(C)nc(N[C@H](C)c3cccc(C#N)c3C)c2cc1N1CCC2(CCOCC2)CC1` [Compound 4, (R)-3-(1-((7-methoxy-2-methyl-6-(3-oxa-9-azaspiro[5.5]undecan-9-yl)quinazolin-4-yl)amino)ethyl)-2-methylbenzonitrile], for which the values for the IC50 on KRAS-G12C/SOS1 and in the test with OCI-AML5 cells were 65.2 nM and 6.3 nM, respectively.

With `COc1cc2nc(C)nc(N[C@H](C)c3cccc(C#N)c3C)c2cc1N1CCC2(CC1)COC2` [Compound 5, (R)-3-(1-((7-methoxy-2-methyl-6-(2-oxa-7-azaspiro[3.5]nonan-7-yl)quinazolin-4-yl)amino)ethyl)-2-methylbenzonitrile], the results for the IC50 at KRAS-G12C/SOS1 and in the test with OCI-AML5 cells were 28 nM and 11.3 nM, respectively.

In the case of `COc1cc2nc(C)nc(N[C@H](C)c3cccc(C#N)c3C)c2cc1N1CCC2(CCN(C)C2=O)CC1` [Compound 7, (R)-3-(1-((7-methoxy-2-methyl-6-(2-methyl-1-oxo-2,8-diazaspiro[4.5]decan-8-yl)quinazolin-4-yl)amino)ethyl)-2-methylbenzonitrile], the figures for the IC50 at KRAS-G12C/SOS1 and with OCI-AML5 cells were 35.7 nM and 2.7 nM, respectively.

As to `COc1cc2nc(C)nc(N[C@H](C)c3cccc(C#N)c3C)c2cc1N1CCC(C#N)CC1` [Compound 8, (R)-1-(4-((1-(3-cyano-2-methylphenyl)ethyl)amino)-7-methoxy-2-methylquinazolin-6-yl)piperidine-4-carbonitrile], the IC50 amounted to 62 nM at KRAS-G12C/SOS1 and 12 nM with OCI-AML5 cells.

As to `COc1cc2nc(C)nc(N[C@H](C)c3cccc(C#N)c3C)c2cc1N1CCC(C)(O)CC1` [Compound 11, (R)-3-(1-((6-(4-hydroxy-4-methylpiperidin-1-yl)-7-methoxy-2-methylquinazolin-4-yl)amino)ethyl)-2-methylbenzonitrile], the IC50 on KRAS-G12C/SOS1 stood at 39.5 nM; with OCI-AML5 cells, 13.6 nM.

For `COc1cc2nc(C)nc(N[C@H](C)c3cccc(C#N)c3C)c2cc1N1CCC2(CC1)CN(C(C)=O)C2` [Compound 19, (R)-3-(1-((6-(2-acetyl-2,7-diazaspiro[3.5]nonan-7-yl)-7-methoxy-2-methylquinazolin-4-yl)amino)ethyl)-2-methylbenzonitrile], the IC50 at KRAS-G12C/SOS1 amounted to 22.3 nM; in the test on OCI-AML5 cells, 16.4 nM.
